Experimental data taken from patent publication US11458091B2, “Compositions and methods for the treatment of opioid overdose” (Opiant Pharmaceuticals, Inc., priority 2016, dated 2022).
Like-named read-outs stand apart in the source and are kept apart here.

Assays:
clinical = settings: human, in vivo; for concentration at 0 h: Hour 0.0; for concentration at 36 h: Hour 36.0; for concentration at 48 h: Hour 48.0; for concentration at 60 h: Hour 60.0; for concentration at 72 h: Hour 72.0; for concentration at 0.08 h: Hour 0.08; for concentration at 2 h: Hour 2.0; for concentration at 3 h: Hour 3.0; for Tmax: median; for concentration at 0.5 h: Hour 0.50; for concentration at 1 h: Hour 1.0; for concentration at 4 h: Hour 4.0
[1] = in vivo; cited from earlier work
[2] = for AUCextrap / Cmax/D / Lambda z: mean
[3] = cited from earlier work
[4] = Intranasal naltrexone with Intravail, AUC (data not presented); format: in vivo; settings: effect of Intravail
Source text: This important difference could not be predicted based on structure of the opioid antagonists, or the function of these moieties as opioid antagonists.

[5] = set-up: increase of total exposure (AUC): reference not given here; settings: intranasal formulation with […] Intravail, cited from earlier work
[6] = 1.5 mg, Mean plasma concentration of nalmefene, 1.5 mg IM
[7] = 1.5 mg, Mean plasma concentration of nalmefene, 1.5 mg IN
[8] = 3 mg, Mean plasma concentration of nalmefene, 3 mg + […] Intravail IN
[9] = 3 mg, Mean plasma concentration of nalmefene, 3 mg IN
[10] = 3 mg plus […] Intravail IN, N = 14

For `C=C1CC[C@@]2(O)[C@H]3Cc4ccc(O)c5c4[C@@]2(CCN3CC2CC2)[C@H]1O5` [Nalmefene, 17-cyclopropylmethyl-4,5α-epoxy-6-methylenemorphinan-3,14-diol], the half-life (clinical; 1.5 mg, 1.5 mg IN, mean, N = 14) was 6.74 h, the concentration at 0 h (clinical; [6]) was 0 ng/mL and the concentration at 36 h (clinical; [6]) was 0 ng/mL. It also gave a concentration at 48 h (clinical; [6]) of 0 ng/mL, a concentration at 60 h (clinical; [6]) of 0 ng/mL and a concentration at 72 h (clinical; [6]) of 0 ng/mL. It also gave a concentration at 0 h (clinical; [7]) of 0 ng/mL, a concentration at 0.08 h (clinical; [7]) of 0 ng/mL and a concentration at […] (clinical; 1.5 mg, Mean plasma concentration of nalmefene, 1.5 mg IN, Hour 0.75) of 0.691 ng/mL. It also gave a concentration at 2 h (clinical; [7]) of 0.872 ng/mL, a concentration at 3 h (clinical; [7]) of 0.712 ng/mL and a concentration at 12 h (clinical; 1.5 mg, Mean plasma concentration of nalmefene, 1.5 mg IN, Hour 12.0) of 0.141 ng/mL. It also gave a concentration at 30 h (clinical; 1.5 mg, Mean plasma concentration of nalmefene, 1.5 mg IN, Hour 30.0) of 0 ng/mL, a concentration at 36 h (clinical; [7]) of 0 ng/mL and a concentration at 48 h (clinical; [7]) of 0 ng/mL. For the same compound, the concentration at 60 h (clinical; [7]) was 0 ng/mL, the concentration at 72 h (clinical; [7]) was 0 ng/mL and the Tmax (clinical; 1.5 mg, 1.5 mg IN, N = 14) was 2 h. For the same compound, the AUC(0-t) (clinical; 3 mg, AUC0-t, 3 mg plus […] Intravail IN, mean, N = 14) was 17.3 ng·h/mL, the half-life (clinical; 3 mg, 3 mg IN, mean, N = 14) was 7.84 h and the half-life (clinical; 3 mg, 3 mg plus […] Intravail IN, mean, N = 14) was 6.78 h. For the same compound, the concentration at 0 h (clinical; [8]) was 0 ng/mL, the concentration at 0.08 h (clinical; [8]) was 0.931 ng/mL and the concentration at […] (clinical; 3 mg, Mean plasma concentration of nalmefene, 3 mg + […] Intravail IN, Hour 0.17) was 3.69 ng/mL. It also gave a concentration at […] (clinical; 3 mg, Mean plasma concentration of nalmefene, 3 mg + […] Intravail IN, Hour 0.25) of 4.38 ng/mL, a concentration at […] (clinical; 3 mg, Mean plasma concentration of nalmefene, 3 mg + […] Intravail IN, Hour 0.33) of 3.53 ng/mL and a concentration at 0.5 h (clinical; [8]) of 3.2 ng/mL. The concentration at 1 h (clinical; [8]) was 2.54 ng/mL, the concentration at 2 h (clinical; [8]) was 1.99 ng/mL and the concentration at 3 h (clinical; [8]) was 1.57 ng/mL. For the same compound, the concentration at 4 h (clinical; [8]) was 1.32 ng/mL, the concentration at 6 h (clinical; 3 mg, Mean plasma concentration of nalmefene, 3 mg + […] Intravail IN, Hour 6.0) was 0.91 ng/mL and the concentration at 36 h (clinical; [8]) was 0.0149 ng/mL. For the same compound, the concentration at 48 h (clinical; [8]) was 0 ng/mL, the concentration at 60 h (clinical; [8]) was 0 ng/mL and the concentration at 72 h (clinical; [8]) was 0 ng/mL. For the same compound, the concentration at 0 h (clinical; [9]) was 0 ng/mL, the concentration at 0.08 h (clinical; [9]) was 0 ng/mL and the concentration at […] (clinical; 3 mg, Mean plasma concentration of nalmefene, 3 mg IN, Hour 0.25) was 0.392 ng/mL. The concentration at 0.5 h (clinical; [9]) was 1.01 ng/mL, the concentration at […] (clinical; 3 mg, Mean plasma concentration of nalmefene, 3 mg IN, Hour 0.75) was 1.4 ng/mL and the concentration at 1 h (clinical; [9]) was 1.68 ng/mL. It also gave a concentration at 3 h (clinical; [9]) of 1.53 ng/mL, a concentration at 4 h (clinical; [9]) of 1.22 ng/mL and a concentration at 24 h (clinical; 3 mg, Mean plasma concentration of nalmefene, 3 mg IN, Hour 24.0) of 0.125 ng/mL. The concentration at 48 h (clinical; [9]) was 0 ng/mL, the concentration at 60 h (clinical; [9]) was 0 ng/mL and the concentration at 72 h (clinical; [9]) was 0 ng/mL. For the same compound, the Tmax (clinical; 3 mg, 3 mg IN, N = 14) was 2 h, the “incidence of common adverse reactions (nausea, vomiting, tachycardia, hypertension, postoperative pain, fever, dizziness, headache, chills, hypotension, vasodilation)” value [1] was “greater than 1%” and the “Mean plasma concentration of nalmefene” value ([2]; 1.5 mg IM, Hour 0.08) was 0.457 ng/mL. For the same compound, the “Mean plasma concentration of nalmefene” value ([2]; 1.5 mg IM, Hour 0.17) was 1.01 ng/mL, the “Mean plasma concentration of nalmefene” value ([2]; 1.5 mg IM, Hour 0.25) was 1.43 ng/mL and the “Mean plasma concentration of nalmefene” value ([2]; 1.5 mg IM, Hour 0.33) was 1.33 ng/mL. The “Mean plasma concentration of nalmefene” value ([2]; 1.5 mg IM, Hour 0.50) was 1.19 ng/mL, the “Mean plasma concentration of nalmefene” value ([2]; 1.5 mg IM, Hour 0.75) was 1.14 ng/mL and the “Mean plasma concentration of nalmefene” value ([2]; 1.5 mg IM, Hour 1.0) was 1.08 ng/mL. The “Mean plasma concentration of nalmefene” value ([2]; 1.5 mg IM, Hour 2.0) was 1.03 ng/mL, the “Mean plasma concentration of nalmefene” value ([2]; 1.5 mg IM, Hour 3.0) was 0.878 ng/mL and the “Mean plasma concentration of nalmefene” value ([2]; 1.5 mg IM, Hour 4.0) was 0.798 ng/mL. The “Mean plasma concentration of nalmefene” value ([2]; 1.5 mg IM, Hour 6.0) was 0.688 ng/mL, the “Mean plasma concentration of nalmefene” value ([2]; 1.5 mg IM, Hour 8.0) was 0.603 ng/mL and the “Mean plasma concentration of nalmefene” value ([2]; 1.5 mg IM, Hour 12.0) was 0.470 ng/mL. For the same compound, the “Mean plasma concentration of nalmefene” value ([2]; 1.5 mg IM, Hour 16.0) was 0.298 ng/mL, the “Mean plasma concentration of nalmefene” value ([2]; 1.5 mg IM, Hour 24.0) was 0.128 ng/mL and the “Mean plasma concentration of nalmefene” value ([2]; 1.5 mg IM, Hour 30.0) was 0.0740 ng/mL. The AUCextrap ([2]; 1.5 mg IM, N = 13) was 22.6%, the Cmax/D ([2]; 1.5 mg IM, N = 13) was 1.12 ng/mL/mg and the Lambda z ([2]; 1.5 mg IM, N = 13) was 0.094 h⁻¹. For the same compound, the AUCextrap ([2]; 1.5 mg IN, N = 14) was 30.6%, the Cmax/D ([2]; 1.5 mg IN, N = 14) was 0.646 ng/mL/mg and the Lambda z ([2]; 1.5 mg IN, N = 14) was 0.131 h⁻¹. For the same compound, the AUCextrap ([2]; 3 mg IN, N = 14) was 17.9%, the Cmax/D ([2]; 3 mg IN, N = 14) was 0.731 ng/mL/mg and the Lambda z ([2]; 3 mg IN, N = 14) was 0.101 h⁻¹. The AUCextrap [2, 10] was 14.6%, the Cmax/D [2, 10] was 1.65 ng/mL/mg and the Lambda z [2, 10] was 0.117 h⁻¹. The potency versus naloxone ([3]; milligram-per-milligram basis) was “equipotent on a milligram-per-milligram basis” and the clearance ([3]; versus naloxone) was “slower than naloxone”.

With `O=C1CC[C@@]2(O)[C@H]3Cc4ccc(O)c5c4[C@@]2(CCN3CC2CC2)[C@H]1O5` [naltrexone, 17-(cyclopropylmethyl)-4,5α-epoxy-3,14-dihydroxymorphinan-6-one] the AUC [4] was “increased significantly”.

In the case of `CNS(=O)(=O)Cc1ccc2[nH]cc(CCN(C)C)c2c1` [sumatriptan], the “increase of maximum plasma concentration” value ([5]; in comparison to Imitrex nasal spray) is given as “almost four-fold”, the Tmax [5] is given as 8 to 10 min and the “increase of total exposure (AUC)” value [5] is given as 32%.
